Data reported in patent publication US20220275274A1, “NEUTRAL FLUORESCENT MITOCHONDRIAL MARKER BASED ON NITROGEN-CONTAINING HETEROCYCLE, PREPARATION METHOD AND USE THEREOF” (SOOCHOW UNIVERSITY, priority 2020, published 2022).

Key:
[1] = ultraviolet absorption and fluorescence emission in chloroform; assay type: physicochemical; settings: 10 μM; for maximum emission wavelength (fluorescence spectrum): excitation wavelength and slit width per dye
Method: The ultraviolet absorption and fluorescence emission of the dyes prepared in the examples and comparative examples (at a concentration of 10 μM) in chloroform were tested. The horizontal ordinate is the wavelength, and the vertical ordinate is the absorbance and fluorescence intensity, respectively.
In the ultraviolet-visible absorption spectrum, dye 1a has the maximum absorption at 378 nm; and in the fluorescence spectrum, dye 1a has the highest fluorescence intensity at 452 nm, where the excitation wavelength is 370 nm, and the slit width is 3 nm/1.5 nm. In the ultraviolet-visible absorption spectrum, dye 1b has a maximum absorption wavelength of 382 nm; and in the fluorescence spectrum, dye 1b has a maximum emission wavelength of 485 nm, where the excitation wavelength is 374 nm, and the slit width is 3 nm/1.5 nm. In the ultraviolet-visible absorption spectrum, dye 1c has a maximum absorption wavelength of 385 nm; and in the fluorescence spectrum, dye 1c has a maximum emission wavelength of 454 nm, where the excitation wavelength is 380 nm, and the slit width is 3 nm/1.5 nm. In the ultraviolet-visible absorption spectrum, dye 2a has the maximum absorption at 364 nm; and in the fluorescence spectrum, dye 2a has the highest fluorescence intensity at 480 nm, where the excitation wavelength is 374 nm, and the slit width is 3 nm/1.5 nm. In the ultraviolet-visible absorption spectrum, dye 2b has a maximum absorption wavelength of 360 nm; and in the fluorescence spectrum, dye 2b has a maximum emission wavelength of 458 nm, where the excitation wavelength is 370 nm, and the slit width is 3 nm/1.5 nm. In the ultraviolet-visible absorption spectrum, dye 2c has a maximum absorption wavelength of 356 nm; and in the fluorescence spectrum, dye 2c has a maximum emission wavelength of 441 nm, where the excitation wavelength is 360 nm, and the slit width is 3 nm/3 nm. In the ultraviolet-visible absorption spectrum, dye 3a has the maximum absorption at 548 nm; and in the fluorescence spectrum, dye 3a has the highest fluorescence intensity at 606 nm, where the excitation wavelength is 560 nm, and the slit width is 1.5 nm/1.5 nm. In the ultraviolet-visible absorption spectrum, dye 3b has a maximum absorption wavelength of 549 nm; and in the fluorescence spectrum, dye 3b has a maximum emission wavelength of 608 nm, where the excitation wavelength is 540 nm, and the slit width is 1.5 nm/1.5 nm. In the ultraviolet-visible absorption spectrum, dye 3c has a maximum absorption wavelength of 554 nm; and in the fluorescence spectrum, dye 3c has a maximum emission wavelength of 611 nm, where the excitation wavelength is 540 nm, and the slit width is 1.5 nm/1.5 nm. In the ultraviolet-visible absorption spectrum, dye 3d has a maximum absorption wavelength of 556 nm; and in the fluorescence spectrum, dye 3d has a maximum emission wavelength of 619 nm, where the excitation wavelength is 570 nm, and the slit width is 1.5 nm/1.5 nm. In the ultraviolet-visible absorption spectrum, dye 4 has a maximum absorption wavelength of 501 nm; and in the fluorescence spectrum, dye 4 has a maximum emission wavelength of 515 nm, where the excitation wavelength is 495 nm, and the slit width is 1.5 nm/1.5 nm. The above UV absorption and fluorescence emission test methods are conventional methods.

HeLa cells = assay: cell imaging, colocalization with green mitochondrial marker Mito Tracker Green FM; assay type: cell-based; settings: dye 1 μM, vs Mito Tracker Green FM (100 nm), red and green channel
Method: (§1) Dye 3a was formulated into a mother liquor in DMSO (dimethyl sulfoxide), and then added to a conventional cell culture medium to give a concentration of dye 3a in the cell culture medium of 1 μM. L929 cells and HeLa cells were respectively co-cultured for 10 min in an incubator at saturated humidity, 37° C., and 5% CO2 (the experiment was same below). The existing green mitochondrial marker Mito Tracker® Green FM (100 nm) was added, and the cells were co-incubated for another 10 min, washed three times with a PBS buffer, and imaged under a laser confocal microscope. In the red channel, light of 561 nm was used for excitation, and a fluorescence signal in the range of 570-750 nm was collected. In the green channel, light of 488 nm was used for excitation, and a fluorescence signal in the range of 500-550 nm was collected. […] The results are shown in FIG. 20, where (a) and (g) are the bright-field images; (b) and (h) are the cell images with dye 3a; (c) and (i) are the cell images with the green mitochondrial marker; (d) and (j) are overlapped images with red channel and green channel, (e) and (k) show the fluorescence intensity of the ROI line in the overlapped images; and (f) and (1) show colocalization assays, with a colocalization coefficient of 0.91 (L929) and 0.90 (HeLa) respectively.
(§2) The experiment method with dye 3b (1 μM) and dye 3c (1 μM) is the same as that with dye 3a above, except that dye 3a is replaced. […] In FIG. 21, (a) and (g) are the bright-field images; (b) and (h) are the cell images with dye 3b; (c) and (i) are the cell images with the green mitochondrial marker; (d) and (j) are overlapped images with red channel and green channel, (e) and (k) show the fluorescence intensity of the ROI line in the overlapped images; and (f) and (1) show colocalization assays, with a colocalization coefficient of 0.88 (L929) and 0.90 (HeLa) respectively. In FIG. 22, (a) and (g) are the bright-field images; (b) and (h) are the cell images with dye 3c; (c) and (i) are the cell images with the green mitochondrial marker; (d) and (j) are overlapped images with red channel and green channel, (e) and (k) show the fluorescence intensity of the ROI line in the overlapped images; and (f) and (1) show colocalization assays, with a colocalization coefficient of 0.89 (L929) and 0.87 (HeLa) respectively.
(§3) Dye 3d was formulated into a mother liquor in DMSO (dimethyl sulfoxide), and then added to a conventional cell culture medium to give a concentration of dye 3d in the cell culture medium of 1 μM. L929 cells and HeLa cells were respectively co-cultured for 10 min in an incubator at saturated humidity, 37° C., and 5% CO2. Then the green mitochondrial marker Mito Tracker® Green FM (100 nm) and a green lipid droplet marker were added (the synthesis is as described in CHen, Y.; Wei, X. R.; Sun, R.; Xu, Y. J.; Ge, J. F. Org Biomol CHem 2018, 16, 7619.). The cells were co-incubated for another 10 min, washed three times with a PBS buffer, and imaged under a laser confocal microscope. In the red channel, light of 561 nm was used for excitation, and a fluorescence signal in the range of 570-750 nm was collected. In the green channel, light of 488 nm was used for excitation, and a fluorescence signal in the range of 500-550 nm was collected. […] The results are shown in FIG. 23, where (a) and (f) are the bright-field images, (b) and (g) are the cell images with dye 3d, (c) is the cell image with the green lipid droplet marker, (h) is the cell image with the green mitochondrial marker, (d) and (i) are overlapped images with red channel and green channel, and (e) and (j) show the fluorescence intensity of the ROI line in the overlapped images. […]

L929 cells = assay: as above; assay type: cell-based; settings: dye 1 μM; for mitochondria labeling ability (red mitochondrial marker): L929 (normal) and HeLa (cancer) cells, vs Mito Tracker Green FM; for colocalization coefficient: L929 cells, vs Mito Tracker Green FM (100 nm), red and green channel
Method: as §1, §2, §3

| maximum absorption wavelength (ultraviolet-visible absorption spectrum) [1] | maximum emission wavelength (fluorescence spectrum) [1] | SMILES | colocalization coefficient (HeLa cells) | mitochondria labeling ability (red mitochondrial marker) (L929 cells) | colocalization coefficient (L929 cells) | organelles marked (L929 cells; L929 and HeLa cells, vs Mito Tracker Green FM and a green lipid droplet marker) |
| --- | --- | --- | --- | --- | --- | --- |
| 549 nm | 608 nm | CCN(CC)c1ccc2nc3c4ccc(-c5cnc6[nH]ccc6c5)cc4c(=O)cc-3oc2c1 [dye 3b] | 0.90 | mitochondria labeling ability in both normal cells and cancer cells | 0.88 |  |
| 556 nm | 619 nm | CCN(CC)c1ccc2nc3c4ccc(-c5ccc6nccnc6c5)cc4c(=O)cc-3oc2c1 [dye 3d] |  |  |  | simultaneously mark two organelles, i.e. mitochondria and lipid droplets |
| 548 nm | 606 nm | CCN(CC)c1ccc2nc3c4ccc(-c5ccc6[nH]ncc6c5)cc4c(=O)cc-3oc2c1 [dye 3a] | 0.90 | mitochondria labeling ability in both normal cells and cancer cells | 0.91 |  |
| 554 nm | 611 nm | CCN(CC)c1ccc2nc3c4ccc(-c5cnc6[nH]ncc6c5)cc4c(=O)cc-3oc2c1 [dye 3c] | 0.87 | mitochondria labeling ability in both normal cells and cancer cells | 0.89 |  |
